Assays:
Assay type in all cases: cell-based
[1] = molecular target: T1, NPFF1 (SN2) (Rattus norvegicus, UniProt Q9EP86); assay: Microphysiometric measurement of extracellular acidification rate in transiently transfected CHO cells; conditions: CHO cells transfected with NPFF1 alone; read-out: EC50, increase in extracellular acidification rate
T1 construct: expressed in transfected cells; host or cells: CHO (CHO-K1) cells, transient
Text: Microphysiometric response of CHO cells transiently transfected with either NPFF1 (SN2) alone or NPFF1 accompanied by Gq/Gz. […] In both FIGS. 17A and 17B control cells mock transfected with empty vector produced little if any response to drug even at the highest concentrations used. Responses are reported as percentage increase in the acidification rate as observed just prior to drug challenge (immediate prior basal rate).
General guidelines for transient receptor expression, cell preparation and microphysiometric recording are described elsewhere (Salon, J. A. and Owicki, J. A., 1996). Receptors and/or control vectors are transiently expressed in CHO-K1 cells, by liposome mediated transfection according to the manufacturers recommendations (Lipof ectAMINE, GibcoBRL, Gaithersburg, Md.), and maintained in Ham's F-12 complete (10% serum). […]
A standard recording protocol specifies a 100 μl/min flow rate, with a 2 min total pump cycle which includes a 30 sec flow interrruption during which the acidification rate measurement is taken. […] Ligand samples are then washed out and the acidification rates reported are expressed as a percentage increase of the peak response over the baseline rate observed just prior to challenge. […]

[2] = molecular target: T2, SNORF2 (NPFF1) (Rattus norvegicus, UniProt Q9EP86); assay: Voltage-clamp electrophysiology in Xenopus oocytes expressing SNORF2 (NPFF1) and chimeric Gαq/z; conditions: 1 μM; oocytes with SNORF2 and Gαq/z; holding potential −80 mV
T2 construct: from linearized plasmids or PCR products containing the complete coding region of the genes; expressed in transfected cells; host or cells: Xenopus laevis oocytes injected with synthetic RNA
Protocol: (§1) Oocytes were harvested from Xenopus laevis and injected with mRNA transcripts as previously described (Quick and Lester, 1994; Smith et al., 1997). […] Three to eight hours prior to recording, oocytes were injected with 500 pg Gαq/z mRNA in order to observe coupling to Ca^++ activated Cl^− currents. Dual electrode voltage clamp (Axon Instruments Inc.) was performed using 3 M KCl-filled glass microelectrodes having resistances of 1–2 Mohm. Unless otherwise specified, oocytes were voltage clamped at a holding potential of −80 mV. During recordings, oocytes were bathed in continuously flowing (1–3 ml/min) medium containing 96 mM NaCl, 2 mM KCl, 1.8 mM CaCl2, 1 mM MgCl2, and 5 mM HEPES, pH 7.5 (ND96). Drugs were applied either by local perfusion from a […] glass capillary tube fixed at a distance of 0.5 mm from the oocyte, or by switching from a series of gravity fed perfusion lines.
Heterologous expression of GPCRs in Xenopus oocytes has been widely used to determine the identity of signaling pathways activated by agonist stimulation (Gundersen et al., 1983; Takahashi et al., 1987). Activation of the phospholipase C (PLC) pathway is assayed by applying test compound in ND96 solution to oocytes previously injected with mRNA for the mammalian receptor and observing inward currents at a holding potential of −80 mV. The appearance of currents that reverse at −25 mV and display other properties of the Ca^++-activated Cl^− (chloride) channel is indicative of mammalian receptor-activation of PLC and release of IP3 and intracellular Ca^++.
Control oocytes receiving only G-protein synthetic RNA were unresponsive to these peptides. […] Similarly, SNORF2-like was renamed NPFF-like.

[3] = molecular target: T3, NPFF2 (hNPFF2) (Homo sapiens, UniProt Q9Y5X5); assay: Voltage-clamp electrophysiology in Xenopus oocytes expressing NPFF2 (NPFF-like) and chimeric Gαq/z; conditions: 1 μM; oocytes with NPFF2 (NPFF-like) mRNA and Gαq/z; −80 mV
T3 construct: BO89, was determined to be a full length clone with no point mutations; expressed in transfected cells; host or cells: Xenopus laevis oocytes injected with synthetic mRNA
Protocol: Electrophysiological responses in voltage-clamped oocytes expressing NPFF2 mRNA. […] Oocytes were clamped at a holding potential of −80 mV.
For expression of NPFF2, mRNA transcripts were generated as described for NPFF1, using PCR products from ligation reactions or linearized DNA from B089 as DNA templates. Oocytes were injected with 5–50 ng NPFF2 mRNA and incubated as previously described.
as §1

T3 sequence (Q9Y5X5 103-522): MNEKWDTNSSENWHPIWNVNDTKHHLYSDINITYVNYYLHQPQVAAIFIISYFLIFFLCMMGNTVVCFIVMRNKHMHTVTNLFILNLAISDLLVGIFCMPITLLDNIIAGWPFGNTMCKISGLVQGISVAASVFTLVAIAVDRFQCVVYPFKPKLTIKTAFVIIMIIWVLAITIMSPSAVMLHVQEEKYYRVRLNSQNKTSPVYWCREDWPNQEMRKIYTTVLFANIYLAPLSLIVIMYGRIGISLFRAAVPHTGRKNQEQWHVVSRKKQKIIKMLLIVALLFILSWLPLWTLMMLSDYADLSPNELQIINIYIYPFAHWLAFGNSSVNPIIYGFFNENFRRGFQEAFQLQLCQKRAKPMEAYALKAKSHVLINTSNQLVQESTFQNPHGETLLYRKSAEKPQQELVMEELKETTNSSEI
T2 sequence (Q9EP86 whole entry): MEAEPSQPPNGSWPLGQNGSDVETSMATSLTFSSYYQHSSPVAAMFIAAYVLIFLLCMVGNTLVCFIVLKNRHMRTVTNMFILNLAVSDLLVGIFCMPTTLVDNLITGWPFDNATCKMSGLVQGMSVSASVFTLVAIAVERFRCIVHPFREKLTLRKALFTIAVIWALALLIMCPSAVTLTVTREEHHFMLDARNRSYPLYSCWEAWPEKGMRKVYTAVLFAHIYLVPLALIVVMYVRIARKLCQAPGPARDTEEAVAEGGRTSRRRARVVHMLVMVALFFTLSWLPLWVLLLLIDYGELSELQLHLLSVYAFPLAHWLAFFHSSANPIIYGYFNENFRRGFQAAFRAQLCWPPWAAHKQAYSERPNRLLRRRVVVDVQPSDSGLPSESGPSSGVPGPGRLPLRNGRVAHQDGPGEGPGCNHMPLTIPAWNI
T1 sequence (Q9EP86 whole entry): as above

H-AGEGLSSPFWSLAAPQRF-NH2 [A18Fa]
EC50 [1]: 150 nM
inward current response [2]: robust inward currents
inward current response [3]: activated similar inward currents

Reference: patent US7041461B2 (H. Lundbeck A/S, priority 1998, dated 2006)
